In patent US6586425B2, “Cytoskeletal active agents for glaucoma therapy” (Wisconsin Alumni Research Foundation, priority 1996, dated 2003):
“And” between values parts separate entries of the source, which are not always exact repeats. Equal entries are not always repeated.

Key:
[1] = tested on: living monkey eyes; assay: Aqueous humor flow and corneal endothelial transfer coefficient ka by fluorophotometry; settings: for AHF Rx, LAT-B/Vehicle / AHF Rx/BL, LAT-B eye / AHF Rx/BL, LAT-B/Vehicle / ka Rx, LAT-B eye / ka Rx, LAT-B/Vehicle / ka Rx/BL, LAT-B eye / ka Rx/BL, LAT-B/Vehicle: 4.0 μg LAT-B topical
[2] = tested on: living monkey eyes; assay: Slit lamp biomicroscopy (ocular tolerability); type: in vivo, cynomolgus monkeys (Macaca fascicularis); settings: for lens appearance: after topical drug; for corneal epithelium at slit lamp: topical LAT-A (21 or 42 μg) or LAT-B (4 μg) in 25% DMSO; for eyes that developed flare (1-2+ on a scale of 0-4+): topical, recovered by 24-48 hr
Protocol: e) Ocular Tolerability/Toxicity: Ocular exams, including slit lamp biomicroscopy (Zeiss or Haag-Streit), gonioscopy, and binocular indirect ophthalmoscopy (American Optical or Keeler), were performed by a trained ophthalmologist, using when necessary contact lenses specially fabricated for the small monkey eye (Kaufman and Wallow, Exp. Eye Res., 40:883-885[1985]). In addition, specular microscopy was used to evaluate drug effects on the corneal endothelium.
The AC of both eyes of was cannulated with a branched needle as above, after which baseline facility measurements were taken for 35-45 min. With reservoirs closed, 2×5 μl drops of 200 μM (˜0.8 μg) or 4×5 μl drops of 500 μM (˜4.0 μg) LAT-B were given to one eye of the prone monkey, allowing 60-90 sec between drops. […] Vehicle (10 or 25% DMSO respectively) was given simultaneously to the opposite eye in a similar manner. The doses were chosen to give […] and 1 μM LAT-B concentrations respectively in the 100 μl monkey AC (See e.g., Erickson-Lamy et al., Arch. Opthalmol., 102:1815-1820[1984]), assuming 1% penetration and no initial drug loss from the AC (Asseff et al., Amer. J. Ophthalmol., 75:212-215[1973]; Harris, in Leopold (ed.), Symposium on Ocular Therapy, C. V. Mosby, St. Louis, Mo., [1968], pp. 96-105; Janes and Stiles, Arch. Ophthahnol., 62:69-74[1959]). The perfusion system remained closed for 2 hr, after which facility measurements were taken for 90 min. Biomicroscopy was performed by an ophthalmologist before and 3, 7 and 14 days after drug administration.
For slit lamp biomicroscopy, a trained ophthalmologist examined all eyes by slit lamp, for integrity of the corneal epithelium and endothelium, presence of flare or cells in the anterior chamber and clarity of the lens. All animals were free of ocular abnormalities when studied.

[3] = tested on: living monkey eye; settings: in vivo
[4] = tested on: living monkey eyes; assay: Slit lamp biomicroscopy (ocular tolerability); type: in vivo, cynomolgus monkeys (Macaca fascicularis); settings: for corneal endothelial cell borders: one to 5 hr after topical drug
[5] = tested on: living monkey eyes; assay: Intraocular pressure by Goldmann applanation tonometry; type: in vivo, cynomolgus monkeys (Macaca fascicularis); settings: for time to IOP reduction after administration: living monkeys, topical
Protocol: The intraocular pressure (IOP) was determined with a “minified” Goldmann applanation tonometer (Kaufman and Davis, Arch. Ophthalmol., 98:542-546[1980]), using “Half and Half®” creamer solution (Borden) as the tear film indicator (Croft et al., in Lakshminarayanan (ed.), Basic and Clinical Applications of Vision Science, Dordtecht, Kluwer, [1997], pp. 213-216), with the monkey lying prone in a head holder and the eyes positioned 4 to 8 cm above the heart. All monkeys were examined by slit-lamp before the first IOP measurement in each protocol. For each eye, two or three IOP measurements were averaged as a baseline.
After baseline IOP was measured, 21 or 42 μg LAT-A or 4 μg LAT-B were administered to the central cornea of supine monkeys in one eye and the vehicle to the opposite eye. Blinking was prevented with lid speculums during and for 5 min. after drug administration (taking care to avoid touching the globe), to maximize drug penetration into the AC and minimize systemic absorption. Following drug administration, the speculums were gently removed and the monkeys were kept in the supine position for another 15 min to further facilitate penetration of drug/vehicle solution into the AC. For LAT-A, IOP was then measured every hr for 7 to 9 hr beginning 1, 6, or 15 hr after the 21 gg dose, or beginning 1 or 6 hr after the 42 μg dose, and again at 24 hr. Each protocol included two groups of monkeys. Group one (6 monkeys) underwent IOP measurement from 1-9 hr and again at 24 hr after the drug; group two (6 monkeys) were measured from 6-13 hr for both doses and again from 15 hr-21 hr on a separate occasion for the 21 μg dose. For both doses, one monkey in group one was used again in group two; therefore its two readings measured at baseline or the period 6-9 hr after the drug on the two different occasions was averaged for data analysis. Thus, “n” for baseline and the period 6-9 hr post-drug is 11 rather than 12. During intervals between the post-drug reading at 9 hr and that at 24 hr for group one or between the drug administration and the first post-drug reading at 6 hr for group two, the animals were returned to the Animal Care Unit for recovery. For LAT-B, IOP was measured every hr for 6 hr beginning 1 hr after the 4 μg dose, and again at 24 hr. The animals were returned to the Animal Care Unit for recovery between the measurements at 6 hr and 24 hr. Anterior segments were examined by slit-lamp at 3, 6, 10 or 24 hr after LAT-A, or at 1, 3, 6 or 24 hr after LAT-B.

[6] = 42 μg LAT-A topical, second 3 hr
[7] = 42 μg LAT-A topical, hour 0.5 to 3.0, n=8
[8] = 42 μg LAT-A topical, hour 0.5 to 6.0, n=8
[9] = 42 μg LAT-A topical, hour 3.5 to 6.0, n=8

C/C1=C/C(=O)O[C@@H]2C[C@@H](CC[C@H](C)/C=C\CC1)O[C@@](O)([C@@H]1CSC(=O)N1)C2 [LAT-B]
effect on AHF ([1]; 4 μg LAT-B topical, first 3 hr): small, insignificant increase in AHF | increase in ka ([1]; 4 μg LAT-B topical, first 3 hr): 58±20% | increase in ka ([1]; 4 μg LAT-B topical, overall 6 hr, n=6): 39±5% | AHF Rx, LAT-B/Vehicle ([1]; hour 0.5 to 3.0, n=6): 1.33 | AHF Rx/BL, LAT-B eye ([1]; hour 0.5 to 3.0, n=6): 1.31 | AHF Rx/BL, LAT-B/Vehicle ([1]; hour 0.5 to 3.0, n=6): 1.33 | ka Rx, LAT-B eye ([1]; hour 0.5 to 3.0, n=6): 0.00735 min⁻¹ | ka Rx, LAT-B/Vehicle ([1]; hour 0.5 to 3.0, n=6): 1.62 | ka Rx/BL, LAT-B eye ([1]; hour 0.5 to 3.0, n=6): 1.44 | ka Rx/BL, LAT-B/Vehicle ([1]; hour 0.5 to 3.0, n=6): 1.58 | AHF Rx, LAT-B/Vehicle ([1]; hour 0.5 to 6.0, n=6): 1.14 | AHF Rx/BL, LAT-B eye ([1]; hour 0.5 to 6.0, n=6): 1.04 | AHF Rx/BL, LAT-B/Vehicle ([1]; hour 0.5 to 6.0, n=6): 1.16 | ka Rx, LAT-B eye ([1]; hour 0.5 to 6.0, n=6): 0.00648 min⁻¹ | ka Rx, LAT-B/Vehicle ([1]; hour 0.5 to 6.0, n=6): 1.34 | ka Rx/BL, LAT-B eye ([1]; hour 0.5 to 6.0, n=6): 1.33 | ka Rx/BL, LAT-B/Vehicle ([1]; hour 0.5 to 6.0, n=6): 1.39 | AHF Rx, LAT-B/Vehicle ([1]; hour 3.5 to 6.0, n=6): 0.93 | AHF Rx/BL, LAT-B eye ([1]; hour 3.5 to 6.0, n=6): 0.84 | AHF Rx/BL, LAT-B/Vehicle ([1]; hour 3.5 to 6.0, n=6): 0.91 | ka Rx, LAT-B eye ([1]; hour 3.5 to 6.0, n=6): 0.0063 min⁻¹ | ka Rx, LAT-B/Vehicle ([1]; hour 3.5 to 6.0, n=6): 1.21 | ka Rx/BL, LAT-B eye ([1]; hour 3.5 to 6.0, n=6): 1.31 | ka Rx/BL, LAT-B/Vehicle ([1]; hour 3.5 to 6.0, n=6): 1.25 | recovery of corneal endothelium ([2]; 4 μg LAT-B): by 6 hr, the corneal endothelium of almost all treated eyes had recovered | biomicroscopy findings ([2]; LAT-B 0.8 μg topical, 3 days after drug and AC perfusion): no adverse effects | biomicroscopy findings ([2]; LAT-B 4.0 μg topical, day 3 after perfusion): two drug-treated eyes exhibited a small clot of blood in the AC | biomicroscopy findings ([2]; LAT-B topical, day 7): all eyes appeared biomicroscopically normal | lens appearance [2]: always appeared normal | corneal epithelium at slit lamp [2]: mild transient corneal epithelial cloudiness | eyes that developed flare (1-2+ on a scale of 0-4+) [2]: one LAT-B-treated eye | BL2/BL1, LAT-B eye [3]: 0.90 ± 0.05 | BL2/BL1, LAT-B/Veh [3]: 0.96 ± 0.06 | Baseline facility BL2, LAT-B eye [3]: 0.33 ± 0.03 μl min^−1 mmHg^−1 | Baseline facility BL2, LAT-B/Veh [3]: 1.01 ± 0.08 | baseline facility vs baseline immediately prior to LAT-B [3]: not significantly different | facility increase, average over 90 min [3]: 456±128% | initial post-drug facility increase over final baseline value [3]: 379±125% | potency relative to LAT-A in the live monkey TM [3]: at least 10 fold | corneal endothelial cell borders [4]: indistinct | maximal IOP reduction, adjusted for baseline and contralateral control eyes ([5]; 4 μg LAT-B topical, 6 hr, n=8): 3.1±1.2 mmHg | IOP ([5]; 4 μg LAT-B topical, at 6 hr (from 17 mmHg)): 13.5 mmHg | IOP ([5]; 4 μg LAT-B topical, within 1 hr (from 17 mmHg)): 15 mmHg | time to IOP reduction after administration [5]: ≤ 1 h

C/C1=C/C(=O)O[C@@H]2C[C@@H](CC[C@H](C)/C=C\C=C\CC1)O[C@@](O)([C@@H]1CSC(=O)N1)C2 [LAT-A]
relative difference in ka between first and second 3-hr intervals ([1]; 42 μg LAT-A topical): 27±12% | increase in ka ([1]; 42 μg LAT-A topical, first 3 hr): 106±16% | increase in apparent AHF relative to vehicle, adjusted for baseline ([1]; 42 μg LAT-A topical, first 3 hr, n=8): 87% and 87±13% | increase in ka ([1]; 42 μg LAT-A topical, overall, n=8): 94±9% | AHF, drug- vs vehicle-treated eyes [1, 6]: no significant differences | increase in ka [1, 6]: 68±10% | AHF Rx, LAT-A eye [1, 7]: 3.48 microliters per minutes | AHF Rx, LAT-A/Vehicle [1, 7]: 1.94 | AHF Rx/BL, LAT-A eye [1, 7]: 1.82 | AHF Rx/BL, LAT-A/Vehicle [1, 7]: 1.87 | ka Rx, LAT-A eye [1, 7]: 0.00996 min⁻¹ | ka Rx, LAT-A/Vehicle [1, 7]: 2.15 | ka Rx/BL, LAT-A eye [1, 7]: 1.84 | ka Rx/BL, LAT-A/Vehicle [1, 7]: 2.06 | AHF Rx, LAT-A eye [1, 8]: 2.65 microliters per minutes | AHF Rx, LAT-A/Vehicle [1, 8]: 1.51 | AHF Rx/BL, LAT-A eye [1, 8]: 1.38 | AHF Rx/BL, LAT-A/Vehicle [1, 8]: 1.51 | ka Rx, LAT-A eye [1, 8]: 0.00961 min⁻¹ | ka Rx, LAT-A/Vehicle [1, 8]: 1.98 | ka Rx/BL, LAT-A eye [1, 8]: 1.72 | ka Rx/BL, LAT-A/Vehicle [1, 8]: 1.94 | AHF Rx, LAT-A eye [1, 9]: 1.87 microliters per minutes | AHF Rx, LAT-A/Vehicle [1, 9]: 1.00 | AHF Rx/BL, LAT-A eye [1, 9]: 1.00 | AHF Rx/BL, LAT-A/Vehicle [1, 9]: 1.01 | ka Rx, LAT-A eye [1, 9]: 0.00925 min⁻¹ | ka Rx, LAT-A/Vehicle [1, 9]: 1.69 | ka Rx/BL, LAT-A eye [1, 9]: 1.59 | ka Rx/BL, LAT-A/Vehicle [1, 9]: 1.68 | lens appearance [2]: always appeared normal | corneal epithelium at slit lamp [2]: mild transient corneal epithelial cloudiness | eyes that developed flare (1-2+ on a scale of 0-4+) [2]: Four LAT-A- treated eyes | BL2/BL1, Rx eye [3]: 1.24 ± 0.19 | BL2/BL1, Rx/Cont [3]: 1.12 ± 0.15 | Baseline facility BL2, Rx eye [3]: 0.42 ± 0.06 μl/min/mmHg | Baseline facility BL2, Rx/Cont [3]: 1.07 ± 0.17 | effect on facility [3]: probably ineffective | reversibility of the facility-effect [3]: minimal | recovery of endothelial refractile spots ([4]; higher dose of LAT-A (42 μg)): most recovered by 10 hr | recovery of endothelial refractile spots ([4]; lower dose of LAT-A (21 μg)): recovered almost completely by 6 hr | corneal endothelial cell borders [4]: indistinct | period of lowered IOP after drug administration ([5]; 21 μg LAT-A topical): 5 to 10 h | maximal IOP decrease below baseline ([5]; 21 μg LAT-A topical, at 8 hr, n=11): 3.48±1.29 mmHg | period of lowered IOP after drug administration ([5]; 42 μg LAT-A topical): 6 to 13 h | maximal IOP reduction below baseline ([5]; 42 μg LAT-A topical, at 9 hr, n=11): 4.60±1.61 mmHg | time to IOP reduction after administration [5]: 6 h
